We go through ten molecules from the supplement of paper PMC4862054.

Conditions in all cases: incubation time: 72 h
Assay [1] relates to MFM-223. Put plainly: drug sensitivity score (DSS), CellTox Green (DSS (AUC-based score)); higher = stronger drug effect (viability inhibition or cytotoxicity); extreme values may be limits of the assay. The essentials: (§1)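 A drug sensitivity score was derived from the area under each fitted dose-response curve. Breast cancer cells (20 µl suspension) were seeded onto compound in 384-well plates, using 5 concentrations 10-fold apart over a compound-specific 10,000-fold range, and incubated 72 h. Readouts were CellTox Green fluorescence and then CellTiter-Glo luminescence, with every plate normalised to 0.1 % DMSO and a positive kill control.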

Assay [2] concerns MCF-10A. The assay is described as above. The essentials:
as §1

The subject of assay [3] is BT-474. Described as above. Summed up: as §1
Assay [4] relates to CAL-85-1. Described as above. The essentials:
as §1

For assay [5], the system named is MDA-MB-436. The assay is described as above. The essentials: as §1
In assay [6] the test system is HDQ-P1. The assay is described as above. Summed up: as §1
In assay [7] the test system is CAL-148. The description is as above. Summed up:
as §1

Another assay has as its system HCC1143. Kind of assay: normalised response (% of control), CellTox Green; higher = less cell death (100 = DMSO, 0 = benzethonium chloride kill control). The essentials: (§2)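 Each entry is the normalised signal at a single concentration within a series. The series comprised 5 concentrations in 10-fold steps over a compound-specific 10,000-fold range, placed in 384-well plates into which breast cancer cell lines were seeded as 20 µl suspension and incubated 72 h. CellTox Green (485/520 nm) fluorescence and then CellTiter-Glo luminescence were read, with signals normalised per plate to 0.1 % DMSO (100) and a positive kill control (0).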

In a further assay the test system is MDA-MB-468. Described as above. Summed up:
as §2

The test system of another assay is MDA-MB-231. The description is as above. The essentials: as §2
Assay [8] concerns MFM-223. The assay is described as above. The essentials:
as §2

Assay [9] deals with MCF-10A. Described as above. The essentials:
as §2

Assay [10] has as its system BT-474. The assay is described as above. Summed up: as §2
In the next assay the test system is HCC1599. Described as above. The essentials: as §2
The subject of the next assay is BT-549. Described as above. Summed up: as §2
Assay [11] deals with CAL-85-1. The assay is described as above. The essentials:
as §2

A further assay relates to HCC1937. The description is as above. The essentials: as §2
For assay [12], the system named is MDA-MB-436. The assay is described as above. Summed up:
as §2

In assay [13] the test system is HDQ-P1. The assay is described as above. Summed up:
as §2

In another assay the test system is DU-4475. The assay is described as above. The essentials: as §2
Another assay has as its system CAL-51. The description is as above. The essentials:
as §2

Assay [14] deals with CAL-148. Described as above. Summed up:
as §2

For the next assay, the system named is MDA-MB-453. The assay is described as above. Summed up:
as §2

The next assay deals with Hs578T. The assay is described as above. Summed up:
as §2

For a further assay, the system named is CAL-120. The description is as above. Summed up: as §2

In the case of `COc1cc(Nc2ncc3c(n2)-c2ccc(Cl)cc2C(c2c(F)cccc2OC)=NC3)ccc1C(=O)O` [Alisertib], the drug sensitivity score in the assay with MFM-223 [1] is 0; with MCF-10A [2] it was 3.47; in the assay with BT-474 [3], 2.03; in the assay on CAL-85-1 [4] it was 1.48; in the assay on MDA-MB-436 [5] it was 0; in the assay with HDQ-P1 [6] it was 0. This molecule also yielded a drug sensitivity score with CAL-148 [7] of 9.1.

Take `COc1cccc2c1C(=O)c1c(O)c3c(c(O)c1C2=O)C[C@@](O)(C(=O)CO)C[C@@H]3O[C@H]1C[C@H](N)[C@H](O)[C@H](C)O1` [Doxorubicin] (1000 nM): the normalised response in the assay with HCC1143 is 143%; in the assay with MDA-MB-468 it was 363%; in the assay with MDA-MB-231, 160%; in the assay with MFM-223 [8], 68%; in the assay with MCF-10A [9] it was 129%; with BT-474 [10], 105%. Besides, the normalised response with HCC1599 was 149%; in the assay with BT-549, 185%; with CAL-85-1 [11] it was 77.5%; with HCC1937, 148%; with MDA-MB-436 [12] it was 126%; in the assay on HDQ-P1 [13] it was 120%. In addition, the normalised response in the assay with DU-4475 came out at 111%; in the assay on CAL-51, 22.4%; with CAL-148 [14], 66.4%; in the assay on MDA-MB-453 it was 130%; in the assay on Hs578T it was 159%; in the assay with CAL-120, 92.7%.

For the molecule `Cc1ccc(F)c(NC(=O)Nc2ccc(-c3cccc4[nH]nc(N)c34)cc2)c1` [Linifanib] (100 nM), the normalised response in the assay on HCC1143 worked out at 122%; in the assay with MDA-MB-468, 66.5%; in the assay on MDA-MB-231, 116%; with MFM-223 [8] it was 103%; in the assay on MCF-10A [9] it was 107%; with BT-474 [10], 101%. Besides, the normalised response in the assay with HCC1599 is 106%; in the assay on BT-549, 110%; in the assay with CAL-85-1 [11] it was 96.3%; in the assay on HCC1937, 117%; in the assay with MDA-MB-436 [12], 66.4%; with HDQ-P1 [13], 112%. Moreover, the normalised response amounted to 107% in the assay on DU-4475; 101% in the assay on CAL-51; 108% with CAL-148 [14]; 108% with MDA-MB-453; 66.5% in the assay on Hs578T; 101% with CAL-120.

In the case of `CC(=O)O[C@]1(C(C)=O)CC[C@H]2[C@@H]3C=C(C)C4=CC(=O)CC[C@]4(C)[C@H]3CC[C@@]21C` [Megestrol acetate], the drug sensitivity score in the assay on MFM-223 [1] was found to be 0; with MCF-10A [2], 0; in the assay on BT-474 [3] it was 0; in the assay on CAL-85-1 [4], 0; in the assay on MDA-MB-436 [5] it was 0; in the assay on HDQ-P1 [6], 1.18. Besides, in the assay with CAL-148 [7], the drug sensitivity score worked out at 0.

`S=c1[nH]cnc2nc[nH]c12` [Mercaptopurine] (1000 nM): the normalised response in the assay on HCC1143 stood at 88.2%; in the assay on MDA-MB-468, 155%; in the assay on MDA-MB-231 it was 96.1%; in the assay on MFM-223 [8], 85.8%; in the assay on MCF-10A [9], 108%; with BT-474 [10], 94.6%. Further, the normalised response in the assay with HCC1599 was found to be 92.1%; with BT-549, 77.2%; in the assay with CAL-85-1 [11] it was 104%; with HCC1937, 23.3%; in the assay on MDA-MB-436 [12], 100%; in the assay on HDQ-P1 [13] it was 97.3%. Also, the normalised response in the assay with DU-4475 was 97.6%; in the assay on CAL-51, 102%; in the assay on CAL-148 [14] it was 102%; with MDA-MB-453, 101%; in the assay with Hs578T, 104%; in the assay on CAL-120, 104%.

In the case of `S=c1[nH]cnc2nc[nH]c12` [Mercaptopurine] (10000 nM), the normalised response is 108% in the assay with HCC1143; 185% in the assay with MDA-MB-468; 95.7% in the assay with MDA-MB-231; 79.1% with MFM-223 [8]; 83.9% in the assay with MCF-10A [9]; 101% in the assay with BT-474 [10]. Besides, the normalised response with HCC1599 worked out at 102%; in the assay with BT-549, 107%; in the assay with CAL-85-1 [11] it was 118%; in the assay on HCC1937 it was 89.1%; in the assay with MDA-MB-436 [12], 93.6%; with HDQ-P1 [13], 102%. The normalised response in the assay on DU-4475 was found to be 97.8%; in the assay on CAL-51, 101%; with CAL-148 [14], 96.1%; with MDA-MB-453, 91.5%; in the assay on Hs578T it was 121%; in the assay on CAL-120 it was 101%.

On to `CCN1CCN(c2ccc(Nc3cc(N(C)C(=O)Nc4c(Cl)c(OC)cc(OC)c4Cl)ncn3)cc2)CC1` [NVP-BGJ398], for which the drug sensitivity score with MFM-223 [1], in the assay with MCF-10A [2], in the assay with BT-474 [3], with CAL-85-1 [4], in the assay on MDA-MB-436 [5] and in the assay on HDQ-P1 [6] was 0 in each case. In the assay on CAL-148 [7], this molecule returned a drug sensitivity score of 0.

Consider `COc1cccc2cc(-c3nc([C@H]4CC[C@H](C(=O)O)CC4)n4ncnc(N)c34)[nH]c12` [OSI-027] (10000 nM), for which the normalised response came to 115% in the assay with HCC1143; 86% with MDA-MB-468; 130% in the assay with MDA-MB-231; 84% with MFM-223 [8]; 101% with MCF-10A [9]; 94.2% in the assay on BT-474 [10]. Moreover, the normalised response came out at 107% with HCC1599; 113% in the assay with BT-549; 89.2% in the assay with CAL-85-1 [11]; 112% in the assay with HCC1937; 109% in the assay on MDA-MB-436 [12]; 106% with HDQ-P1 [13]. The normalised response was 99.7% with DU-4475; 94.5% in the assay with CAL-51; 72.5% in the assay on CAL-148 [14]; 103% with MDA-MB-453; 130% in the assay on Hs578T; 96.9% in the assay on CAL-120.

Turning to `OC[C@H]1O[C@@H](n2cnc3c2N=CNC[C@H]3O)C[C@@H]1O` [Pentostatin] (1000 nM), the normalised response with HCC1143 was determined as 101%; in the assay with MDA-MB-468 it was 100%; with MDA-MB-231, 116%; in the assay on MFM-223 [8] it was 96%; in the assay on MCF-10A [9], 108%; with BT-474 [10], 98.9%. In addition, the normalised response was 95.5% in the assay on HCC1599; 111% with BT-549; 106% in the assay with CAL-85-1 [11]; 104% with HCC1937; 102% in the assay on MDA-MB-436 [12]; 103% in the assay with HDQ-P1 [13]. The normalised response in the assay with DU-4475 was found to be 103%; in the assay on CAL-51, 103%; with CAL-148 [14], 95.5%; in the assay with MDA-MB-453, 107%; in the assay on Hs578T it was 97.8%; in the assay on CAL-120, 103%.

`OC[C@H]1O[C@@H](n2cnc3c2N=CNC[C@H]3O)C[C@@H]1O` [Pentostatin] (10000 nM): the normalised response in the assay on HCC1143 worked out at 110%; with MDA-MB-468, 112%; in the assay with MDA-MB-231, 118%; in the assay on MFM-223 [8] it was 90.8%; in the assay on MCF-10A [9], 103%; in the assay with BT-474 [10], 103%. Also, the normalised response in the assay on HCC1599 stood at 95.2%; in the assay with BT-549, 88.3%; in the assay with CAL-85-1 [11], 85.2%; in the assay on HCC1937 it was 103%; in the assay on MDA-MB-436 [12], 97.6%; with HDQ-P1 [13], 101%. In addition, the normalised response worked out at 97.4% in the assay on DU-4475; 102% in the assay with CAL-51; 102% in the assay on CAL-148 [14]; 104% in the assay on MDA-MB-453; 103% in the assay on Hs578T; 104% in the assay with CAL-120.
